From patent US11298314B2, “Injectable composition for localized fat reduction without pain, edema, and side effects, and method for preparing same” (AMI PHARM CO., LTD., priority 2017, dated 2022) come the findings set out here.

Molecules are shown by their SMILES.

In data set [1] the test system is sole of the rat paws. The experiment in a line: Measurement of skin lesion (erythema) on rat paw.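 As to grade of skin lesion (erythema), 1 hour after administration: grades − to ++++ mean no to extremely severe erythema versus before injection.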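 As to grade of skin lesion (erythema), 2 hours after administration: grades − to ++++ mean no to extremely severe erythema versus before injection.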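 As to grade of skin lesion (erythema), Immediately after administration: grades − to ++++ mean no to extremely severe erythema versus before injection.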 In kind it is in vivo, Sprague Dawley rats. The settings on record: for skin lesion (erythema) in words: 2 hours after administration. The method, then: (§1) To evaluate the degree of edema, each test compositions described above were injected into the paw of the rats. Specifically, male Sprague Dawley rats (6 weeks old) were purchased and used after one week of adaptation. The rats (body weight: 170˜200 g) were randomly selected and the thickness of the rat paw were measured with a caliper before the administration of the test compositions. In order to observe the edema, 0.1 ml of PBS and the various test compositions were administered to the paws of the rats. Measurements of the […] were performed by a caliper immediately before the injection, immediately after the injection, and 1 or 2 hours after the injection. In addition, when the thickness was measured, the skin lesion of the injection site was observed by photographing the sole of the paw (using a 4×4 cm scale).
The grades of skin lesion were evaluated as 0 to 4 grades.

A short description of data set [2]: Formulation stability of PPC injectable preparations: property, transparency, particle size, pH. The following applies: for bile acid/PPC molar ratio below which a substantially stable formulation did not occur: PPC 5.0%; for bile acid concentration at which stable injectable preparations can be made: based on PPC 5.0%.
Protocol: The particle size was measured using a nano particle size analyzer (Microtrac Wave, MICROTRACT, USA). […] The transparency was measured using a spectrophotometer (CM-3600d, KONICA MINOLTA, JAPAN). The pH was measured with a pH meter (ST3100, OHAUS, GERMANY), and the isotonicity was measured with an osmotic pressure meter (Vapro 5600, Elitech Group, Tokyo, Japan), and viscosity was analyzed using a viscometer (Digital Viscometer CL-2, CAS, Korea).
The washed and sterilized preparation tank was charged with the water for injection (at room temperature), and phosphatidylcholine (PPC) and benzyl alcohol were added thereto, and the mixture was stirred at 200 RPM for 2 hours under the condition of nitrogen pressure, shading and room temperature. After the completion of stirring, the mixture was transferred to an ultra-high pressure homogenizer (Nano Disperser NLM100, Ilshin Autoclave, Korea) with a nitrogen pressure. Ultra-high pressure homogenization (dispersion) was carried out at 12,000 psi for 7 cycles, and the particles were finely pulverized. Then, the pH was adjusted. After filtration through a 0.2 μm filter, the vial was filled and sealed.
Specifically, the water for injection was put into the preparation tank which was cleaned and sterilized (room temperature), and sodium hydroxide was added to the water for injection. Then deoxycholic acid and benzyl alcohol were added, stirred and dissolved. Then, phosphatidylcholine was added thereto, and the mixture was stirred at 200 RPM for about 24 hours under shading, sealing, room temperature (25° C.), and nitrogen pressure. After completion of the stirring, the pH was adjusted (if necessary, with additional sodium hydroxide or hydrochloric acid), and it was filtered through a 0.2 μm filter, and filled into the vial and sealed.
Then glycocholic acid and benzyl alcohol were added, stirred and dissolved. Then, phosphatidylcholine was added thereto, and the mixture was stirred at 200 RPM for about 24 hours under shading, sealing, room temperature (25° C.), and nitrogen pressure. After completion of the stirring, the pH was adjusted (if necessary, with additional sodium hydroxide or 0.001-0.6% of hydrochloric acid), and it was filtered through a 0.2 μm filter, and filled into the vial and sealed.
The formulation stability of the PPC injectable compositions solubilized with glycocholic acid (GCA) in Tables 3 and 4 was evaluated immediately after the preparation and 30 days after the preparation (refrigerated storage).
Data set [3] relates to paw of the rats. In words: Rat paw edema. The format is in vivo, Sprague Dawley rats. The settings on record: for degree of edema in words: 2 hours after administration, rat paw; for degree of edema, 1 hour after administration / degree of edema, 2 hours after administration / degree of edema, Immediately after administration: 0.1 ml into rat paw. On the procedure:
as §1
The degree of edema was evaluated as 0 to 4 grades.

For data set [4], the system named is tissues of the injected area (rat paw). In words: H&E staining histological test (inflammation) of injected rat paw. In kind it is in vivo, Sprague Dawley rats. The settings on record: for Inflammation (H&E), BA % (w/v) 1.0: bile acid single composition 1.0% (w/v). The method, then:
The tissues of the injected area were dissected, fixed with 10% formalin, and then the specimen was prepared and images were captured using an optical microscope. The degree of inflammation was evaluated as follows.

For data set [5], the system named is 3T3-L1 adipocytes. In words: Adipocyte (3T3-L1) reducing effect, MTT assay. The following applies: 24 to 96 hours, various concentrations. The format is cell-based. On the procedure:
Tests were performed to compare the adipocyte reducing activity of the PPC single composition and the PPC composition solubilized with bile acids. Differentiated 3T3L-1 adipocyte lines were used to observe adipocyte reduction activity, and cell viability was monitored by MTT assay. […] Materials and methods employed in the following experiments are described below. In the following, % of the composition refers to % (w/v).
The specific test methods are as follows. […] The cells were washed twice with PBS, treated with MTT reagent (50 μl) and left at 37° C. for 2 hours. After removing the supernatant, MTT formazan crystals were dissolved in DMSO and the absorbance was measured at 540 nm using a microplate reader.
The 3T3-L1 adipocyte (ATCC) was cultured in Dulbecco's modified eagle medium (DMEM) (Invitrogen) supplemented with 10% fetal bovine serum, 100 units/ml penicillin and 100 μg/ml streptomycin under the condition of 5% CO2 and 37° C. […] Subsequently, the medium was replaced with DMEM medium containing 1 μg/ml insulin (Sigma), and the culture medium was maintained and changed every 2 to 3 days until the degree of differentiation reaches maximum. If it took more than 7 days, the cells were kept in normal DMEM culture medium until starting the tests. […] After the cells were incubated for 3 hours under the condition of 37° C. and 5% CO2, the MTT solution was removed.

Data set [6] concerns inguinal fat pad. The following applies: 0.2 ml s.c. once into inguinal fat pad, 8 days post-injection.
Setting [7] is: bile acid single composition 1.0% (w/v).
The mark [8] stands for this setting: bile acid single composition 2.5% (w/v).
[9] abbreviates: bile acid single composition 5.0% (w/v).
The mark [10] stands for this setting: bile acid single composition 7.5% (w/v).

With `C[C@H](CCC(=O)NCCS(=O)(=O)O)[C@H]1CC[C@H]2[C@@H]3[C@@H](O)C[C@@H]4C[C@H](O)CC[C@]4(C)[C@H]3CC[C@]12C` [TUDCA, 2-[[(4R)-4-[(3R,5S,7S,8R,9S,10S,13R,14S,17R)-3,7-dihydroxy-10,13-dimethyl-2,3,4,5,6,7,8,9,11,12,14,15,16,17-tetradecahydro-1H-cyclopenta[a]phenanthren-17-yl]pentanoyl]amino]ethanesulfonic acid], the “grade of skin lesion (erythema), 1 hour after administration” value in data set [1] (setting [7]), in data set [1] (setting [8]), in data set [1] (setting [9]) and in data set [1] (setting [10]) was “−” each time. For the same compound, the “grade of skin lesion (erythema), 2 hours after administration” value in data set [1] (setting [7]), in data set [1] (setting [8]), in data set [1] (setting [9]) and in data set [1] (setting [10]) was “−” throughout. Moreover, the “grade of skin lesion (erythema), Immediately after administration” value in data set [1] (setting [7]), in data set [1] (setting [8]), in data set [1] (setting [9]) and in data set [1] (setting [10]) was “−” in each case. For the same compound, the “bile acid/PPC molar ratio below which a substantially stable formulation did not occur” value in data set [2] is “less than 1.29”. Further, in data set [2], the “bile acid concentration at which stable injectable preparations can be made” value was ≥ 4.0%. Moreover, the “degree of edema in words” value in data set [3] (listed as TUCA 1.0%) was “Mild”; in data set [3] (listed as TUCA 2.5%) it was “Mild”; in data set [3] (listed as TUDCA 1.0%), “mild”; in data set [3] (listed as TUDCA 2.5%), “mild”; in data set [3] (listed as TUDCA 5.0%) it was “moderate”; in data set [3] (listed as TUDCA 7.5%), “Moderate”. Moreover, the “degree of edema, 1 hour after administration” value in data set [3] (setting [7]) was “+ (mild edema [+, (the degree of swelling was 1-20% compared to before the injection)])”; in data set [3] (setting [8]), “+ (mild edema [+, (the degree of swelling was 1-20% compared to before the injection)])”; in data set [3] (setting [9]) it was “+ (mild edema [+, (the degree of swelling was 1-20% compared to before the injection)])”; in data set [3] (setting [10]), “++ (moderate edema [++, (the degree of swelling was 20-40% compared to before the injection)])”. In addition, the “degree of edema, 2 hours after administration” value in data set [3] (setting [7]) was “+ (mild edema [+, (the degree of swelling was 1-20% compared to before the injection)])”; in data set [3] (setting [8]), “+ (mild edema [+, (the degree of swelling was 1-20% compared to before the injection)])”; in data set [3] (setting [9]) it was “++ (moderate edema [++, (the degree of swelling was 20-40% compared to before the injection)])”; in data set [3] (setting [10]) it was “++ (moderate edema [++, (the degree of swelling was 20-40% compared to before the injection)])”. Moreover, the “degree of edema, Immediately after administration” value in data set [3] (setting [7]) was “++ (moderate edema [++, (the degree of swelling was 20-40% compared to before the injection)])”; in data set [3] (setting [8]), “++ (moderate edema [++, (the degree of swelling was 20-40% compared to before the injection)])”; in data set [3] (setting [9]), “++ (moderate edema [++, (the degree of swelling was 20-40% compared to before the injection)])”; in data set [3] (setting [10]), “++ (moderate edema [++, (the degree of swelling was 20-40% compared to before the injection)])”. Moreover, the “Inflammation (H&E), BA % (w/v) 1.0” value in data set [4] (injected rat paw) is listed as “−”. Besides, the “Inflammation (H&E), BA % (w/v) 2.5” value in data set [4] (bile acid single composition 2.5% (w/v), injected rat paw) is given as “−”. For the same compound, the “Inflammation (H&E), BA % (w/v) 5.0” value in data set [4] (bile acid single composition 5.0% (w/v), injected rat paw) was “−”. Also, the “Inflammation (H&E), BA % (w/v) 7.5” value in data set [4] (bile acid single composition 7.5% (w/v), injected rat paw) is “+”. Moreover, in data set [4] (rats sacrificed at 3 hours, injected paw), the “degree of inflammation (H&E) in words” value was “Mild”. In addition, the “adipocyte viability / adipocyte-reducing activity” value in data set [5] is “inhibits the adipocyte apoptosis and degradation”.

For `CC(C)NCC(O)c1ccc(O)c(O)c1` (stereo not drawn) [Isuprel], in data set [6], the “histological change of adipocytes in fat tissue” value is recorded as “size of the adipocytes was reduced”.

For `C[C@H](CCC(=O)O)[C@H]1CC[C@H]2[C@@H]3C[C@H](O)[C@@H]4C[C@H](O)CC[C@]4(C)[C@H]3CC[C@]12C` [HDCA, (4R)-4-[(3R,5R,6S,8S,9S,10R,13R,14S,17R)-3,6-dihydroxy-10,13-dimethyl-2,3,4,5,6,7,8,9,11,12,14,15,16,17-tetradecahydro-1H-cyclopenta[a]phenanthren-17-yl]pentanoic acid], the “skin lesion (erythema) in words” value is “Mild” in data set [1] (listed as HDCA 1.0%); ““severe” and “extremely severe”” in data set [1] (listed as HDCA 2.5%). Besides, the “grade of skin lesion (erythema), 1 hour after administration” value in data set [1] (setting [7]) is given as “+”; in data set [1] (setting [8]) it was “+++”; in data set [1] (setting [9]), “++++”; in data set [1] (setting [10]), “++++”. In addition, the “grade of skin lesion (erythema), 2 hours after administration” value is recorded as “+” in data set [1] (setting [7]), “+++” in data set [1] (setting [8]), “++++” in data set [1] (setting [9]) and “++++” in data set [1] (setting [10]). In addition, the “grade of skin lesion (erythema), Immediately after administration” value in data set [1] (setting [7]) is recorded as “+”; in data set [1] (setting [8]), “+”; in data set [1] (setting [9]), “+”; in data set [1] (setting [10]), “++”. For the same compound, the “bile acid/PPC molar ratio below which a substantially stable formulation did not occur” value in data set [2] is reported as “less than 0.95”. For the same compound, the “bile acid concentration at which stable injectable preparations can be made” value in data set [2] is recorded as ≥ 2.3%. In addition, in data set [3] (listed as HDCA 2.5%), the “degree of edema in words” value was ““severe” and “extremely severe””. Moreover, the “degree of edema, 1 hour after administration” value was “++ (moderate edema [++, (the degree of swelling was 20-40% compared to before the injection)])” in data set [3] (setting [7]); “++ (moderate edema [++, (the degree of swelling was 20-40% compared to before the injection)])” in data set [3] (setting [8]); “++++ (extremely severe edema [++++, (the degree of swelling was 60% or more compared to before the injection)])” in data set [3] (setting [9]); “++++ (extremely severe edema [++++, (the degree of swelling was 60% or more compared to before the injection)])” in data set [3] (setting [10]). Besides, the “degree of edema, 2 hours after administration” value in data set [3] (setting [7]) is “+++ (severe edema [+++, (the degree of swelling was 40-60% compared to before the injection)])”; in data set [3] (setting [8]) it was “+++ (severe edema [+++, (the degree of swelling was 40-60% compared to before the injection)])”; in data set [3] (setting [9]) it was “++++ (extremely severe edema [++++, (the degree of swelling was 60% or more compared to before the injection)])”; in data set [3] (setting [10]), “++++ (extremely severe edema [++++, (the degree of swelling was 60% or more compared to before the injection)])”. In addition, the “degree of edema, Immediately after administration” value in data set [3] (setting [7]) is “++ (moderate edema [++, (the degree of swelling was 20-40% compared to before the injection)])”; in data set [3] (setting [8]), “++ (moderate edema [++, (the degree of swelling was 20-40% compared to before the injection)])”; in data set [3] (setting [9]), “++ (moderate edema [++, (the degree of swelling was 20-40% compared to before the injection)])”; in data set [3] (setting [10]), “++ (moderate edema [++, (the degree of swelling was 20-40% compared to before the injection)])”. The “Inflammation (H&E), BA % (w/v) 1.0” value in data set [4] (injected rat paw) is “+++”.
